Measured values published in patent US12503436B2, “Compounds and compositions for treating conditions associated with STING activity” (NOVARTIS PHARMA AG, priority 2021, dated 2025).
pEC50: −log10 of the molar value.

Biological target: STING (Homo sapiens, UniProt Q86WV6, G230A/H232R/R293Q/R71H)
Assay: STING reporter assay in THP1-Dual KO-IFNAR2 cells (2′3′cGAMP stimulation, luciferase reporter)
Assay type: cell-based
Settings: 15 μM 2′3′cGAMP stimulation, 24 h, read-out: Pharmaron, THP1_IFNAR2 STING 24 h Luci Normalized: GeoMean EC50
Summary of the method: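 THP1-Dual KO-IFNAR2 cells (2×10E6 cells/mL) with compounds at 0.0017-100 μM final, stimulated with 15 μM final 2′3′cGAMP delivered by Lipofectamine 2000; 24 h at 37 °C. Luciferase in supernatant read with QUANTI-Luc Plus; EC50 derived from luminescence.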

Chain of STING (Q86WV6 whole entry R71H/G230A/H232R/R293Q): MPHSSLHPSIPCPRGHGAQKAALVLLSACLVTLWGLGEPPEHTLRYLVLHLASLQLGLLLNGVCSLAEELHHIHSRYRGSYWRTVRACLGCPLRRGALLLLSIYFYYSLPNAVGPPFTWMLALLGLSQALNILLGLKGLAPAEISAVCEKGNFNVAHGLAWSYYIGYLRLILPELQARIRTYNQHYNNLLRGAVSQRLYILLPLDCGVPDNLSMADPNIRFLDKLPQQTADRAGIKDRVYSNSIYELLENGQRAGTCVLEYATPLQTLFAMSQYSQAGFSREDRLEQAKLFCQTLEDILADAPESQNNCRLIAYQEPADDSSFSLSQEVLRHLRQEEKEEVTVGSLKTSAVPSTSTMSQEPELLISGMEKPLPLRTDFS

Row | SMILES | pEC50
1 | O=C(Nc1c[nH]c2ccc(O[C@H]3C[C@@H](c4ccc(C(F)(F)F)cc4)C3)cc12)C1CC1(F)F (stereo partly drawn) [Compound 364, 2,2-difluoro-N-(5-(cis-3-(4-(trifluoromethyl)phenyl)cyclobutoxy)-1H-indol-3-yl)cyclopropane-1-carboxamide] | 6.70 to 7.40
2 | O=C(Nc1c[nH]c2ccc(O[C@H]3C[C@@H](c4ccc(C(F)(F)F)cc4)C3)cc12)C1CCOCC1 [Compound 365, N-(5-(cis-3-(4-(trifluoromethyl)phenyl)cyclobutoxy)-1H-indol-3-yl)tetrahydro-2H-pyran-4-carboxamide] | 6.70 to 7.40
3 | O=C(Nc1c[nH]c2ccc(OCC[C@@H]3C[C@@H]4CN(CC(F)(F)F)C[C@@H]4C3)cc12)C1(C(F)(F)F)CC1 [Compound 366, N-(5-(2-((3aR,5r,6aS)-2-(2,2,2-trifluoroethyl)octahydrocyclopenta[c]pyrrol-5-yl)ethoxy)-1H-indol-3-yl)-1-(trifluoromethyl)cyclopropane-1-carboxamide] | 6.00 to 6.70
4 | CC(C)(C)C(=O)Nc1c[nH]c2ccc(OCC[C@@H]3C[C@@H]4CN(CC(F)(F)F)C[C@@H]4C3)cc12 [Compound 367, N-(5-(2-((3aR,5r,6aS)-2-(2,2,2-trifluoroethyl)octahydrocyclopenta[c]pyrrol-5-yl)ethoxy)-1H-indol-3-yl)pivalamide] | 6.00 to 6.70
5 | CC1(C(=O)Nc2c[nH]c3ccc(OCC[C@@H]4C[C@@H]5CN(CC(F)(F)F)C[C@@H]5C4)cc23)CCC1 [Compound 369, 1-methyl-N-(5-(2-((3aR,5r,6aS)-2-(2,2,2-trifluoroethyl)octahydrocyclopenta[c]pyrrol-5-yl)ethoxy)-1H-indol-3-yl)cyclobutane-1-carboxamide] | 6.00 to 6.70
6 | N#CC1(C(=O)Nc2c[nH]c3ccc(OCC[C@@H]4C[C@@H]5CN(CC(F)(F)F)C[C@@H]5C4)cc23)CC1 [Compound 370, 1-cyano-N-(5-(2-((3aR,5r,6aS)-2-(2,2,2-trifluoroethyl)octahydrocyclopenta[c]pyrrol-5-yl)ethoxy)-1H-indol-3-yl)cyclopropane-1-carboxamide] | 6.00 to 6.70
7 | CC1(C(=O)Nc2c[nH]c3ccc(OCCc4ccc(C(F)(F)F)nc4)cc23)COC1 [Compound 372, 3-methyl-N-(5-(2-(6-(trifluoromethyl)pyridin-3-yl)ethoxy)-1H-indol-3-yl)oxetane-3-carboxamide] | 5.30 to 6.00
8 | O=C(Nc1c[nH]c2ccc(OCCc3ccc(C(F)(F)F)nc3)cc12)C1COC1 [Compound 373, N-(5-(2-(6-(trifluoromethyl)pyridin-3-yl)ethoxy)-1H-indol-3-yl)oxetane-3-carboxamide] | 5.30 to 6.00
9 | CC(=O)Nc1c[nH]c2cc(F)c(CCOc3ccc(C(F)(F)F)cc3)c(F)c12 [Compound 375, N-(4,6-difluoro-5-(2-(4-(trifluoromethyl)phenoxy)ethyl)-1H-indol-3-yl)acetamide] | 5.30 to 6.00
10 | CC1(C(=O)Nc2c[nH]c3ccc(OC4CC(c5ccc(C(F)(F)F)nc5)C4)cc23)CC1 (stereo not shown) [Compound 376, 1-methyl-N-(5-(3-(6-(trifluoromethyl)pyridin-3-yl)cyclobutoxy)-1H-indol-3-yl)cyclopropane-1-carboxamide] | 6.00 to 6.70
11 | CC(=O)Nc1c[nH]c2ccc(CCOC3CN(CC(F)(F)F)C3)cc12 [Compound 377, N-(5-(2-((1-(2,2,2-trifluoroethyl)azetidin-3-yl)oxy)ethyl)-1H-indol-3-yl)acetamide] | 4.00 to 5.30
12 | CC1(C(=O)Nc2c[nH]c3ccc(O[C@H]4C[C@@H](c5ccc(C(F)(F)F)cc5)C4)cc23)COC1 [Compound 378, 3-methyl-N-(5-(cis-3-(4-(trifluoromethyl)phenyl)cyclobutoxy)-1H-indol-3-yl)oxetane-3-carboxamide] | 6.00 to 6.70
13 | CC1(C(=O)Nc2c[nH]c3ccc(OCC[C@@H]4C[C@@H]5CN(CC(F)(F)F)C[C@@H]5C4)cc23)CC1 [Compound 379, 1-methyl-N-(5-(2-((3aR,5r,6aS)-2-(2,2,2-trifluoroethyl)octahydrocyclopenta[c]pyrrol-5-yl)ethoxy)-1H-indol-3-yl)cyclopropane-1-carboxamide] | 6.00 to 6.70
14 | CC1(F)CC(C(=O)Nc2c[nH]c3ccc(OCCc4ccc(C(F)(F)F)cc4)cc23)C1 (stereo not shown) [Compound 380, 3-fluoro-3-methyl-N-(5-(4-(trifluoromethyl)phenethoxy)-1H-indol-3-yl)cyclobutane-1-carboxamide] | 6.70 to 7.40
15 | O=C(Nc1c[nH]c2ccc(OCc3ccc(C(F)(F)F)cc3)cc12)C1COC1 [Compound 381, N-(5-((4-(trifluoromethyl)benzyl)oxy)-1H-indol-3-yl)oxetane-3-carboxamide] | 6.00 to 6.70
16 | O=C(Nc1c[nH]c2ccc(OCC[C@@H]3C[C@@H]4CN(CC(F)(F)F)C[C@@H]4C3)cc12)C1COC1 [Compound 383, N-(5-(2-((3aR,5r,6aS)-2-(2,2,2-trifluoroethyl)octahydrocyclopenta[c]pyrrol-5-yl)ethoxy)-1H-indol-3-yl)oxetane-3-carboxamide] | 6.00 to 6.70
17 | O=C(Nc1c[nH]c2ccc(CCCn3cc(C(F)(F)F)cn3)cc12)C1CC1 [Compound 384, N-(5-(3-(4-(trifluoromethyl)-1H-pyrazol-1-yl)propyl)-1H-indol-3-yl)cyclopropanecarboxamide] | 6.00 to 6.70

Row | SMILES | pEC50
18 | CC(=O)Nc1c[nH]c2ccc(OCCc3cnn(C(F)F)c3)cc12 [Compound 385, N-(5-(2-(1-(difluoromethyl)-1H-pyrazol-4-yl)ethoxy)-1H-indol-3-yl)acetamide] | 4.00 to 5.30
19 | CC(=O)Nc1c[nH]c2ccc(CCOc3ccc4c(c3)N(Cc3ccccc3)C(=O)CS4)cc12 [Compound 386, N-(5-(2-((4-benzyl-3-oxo-3,4-dihydro-2H-benzo[b][1,4]thiazin-6-yl)oxy)ethyl)-1H-indol-3-yl)acetamide] | 5.30 to 6.00
20 | O=C(Nc1c[nH]c2ccc(CCOc3ccc(C(F)(F)F)cc3)cc12)C1(C(F)(F)F)CC1 [Compound 387, 1-(trifluoromethyl)-N-(5-(2-(4-(trifluoromethyl)phenoxy)ethyl)-1H-indol-3-yl)cyclopropane-1-carboxamide] | 6.00 to 6.70
21 | O=C(Nc1c[nH]c2ccc(CCOc3ccc(C(F)(F)F)cc3)cc12)C1CC(F)(F)C1 [Compound 388, 3,3-difluoro-N-(5-(2-(4-(trifluoromethyl)phenoxy)ethyl)-1H-indol-3-yl)cyclobutane-1-carboxamide] | 6.00 to 6.70
22 | CC(C)(C)C(=O)Nc1c[nH]c2ccc(CCOc3ccc(C(F)(F)F)cc3)cc12 [Compound 389, N-(5-(2-(4-(trifluoromethyl)phenoxy)ethyl)-1H-indol-3-yl)pivalamide] | 6.00 to 6.70
23 | N#CC1CCC1C(=O)Nc1c[nH]c2ccc(CCOc3ccc(C(F)(F)F)cc3)cc12 (stereo not shown) [Compound 390, 2-cyano-N-(5-(2-(4-(trifluoromethyl)phenoxy)ethyl)-1H-indol-3-yl)cyclobutane-1-carboxamide] | 6.00 to 6.70
24 | N#C[C@H]1C[C@@H]1C(=O)Nc1c[nH]c2ccc(CCOc3ccc(C(F)(F)F)cc3)cc12 [Compound 391, (1S,2S)-2-cyano-N-(5-(2-(4-(trifluoromethyl)phenoxy)ethyl)-1H-indol-3-yl)cyclopropane-1-carboxamide] | 6.70 to 7.40
25 | C[C@H]1C[C@H](C(=O)Nc2c[nH]c3ccc(CCOc4ccc(C(F)(F)F)cc4)cc23)C1 [Compound 392, trans-3-methyl-N-(5-(2-(4-(trifluoromethyl)phenoxy)ethyl)-1H-indol-3-yl)cyclobutane-1-carboxamide] | 6.00 to 6.70
26 | C[C@H]1C[C@@H](C(=O)Nc2c[nH]c3ccc(CCOc4ccc(C(F)(F)F)cc4)cc23)C1 [Compound 393, cis-3-methyl-N-(5-(2-(4-(trifluoromethyl)phenoxy)ethyl)-1H-indol-3-yl)cyclobutane-1-carboxamide] | 6.00 to 6.70
27 | C[C@H]1C[C@@H]1C(=O)Nc1c[nH]c2ccc(CCOc3ccc(C(F)(F)F)cc3)cc12 [Compound 394, (1S,2S)-2-methyl-N-(5-(2-(4-(trifluoromethyl)phenoxy)ethyl)-1H-indol-3-yl)cyclopropane-1-carboxamide] | 6.70 to 7.40
28 | CC1(F)CC(C(=O)Nc2c[nH]c3ccc(CCOc4ccc(C(F)(F)F)cc4)cc23)C1 (stereo not shown) [Compound 395, 3-fluoro-3-methyl-N-(5-(2-(4-(trifluoromethyl)phenoxy)ethyl)-1H-indol-3-yl)cyclobutane-1-carboxamide] | 6.00 to 6.70
29 | CC1(C(=O)Nc2c[nH]c3ccc(CCOc4ccc(C(F)(F)F)cc4)cc23)CCCO1 (stereo not shown) [Compound 396, 2-methyl-N-(5-(2-(4-(trifluoromethyl)phenoxy)ethyl)-1H-indol-3-yl)tetrahydrofuran-2-carboxamide] | 6.00 to 6.70
30 | CC1(C)CC1C(=O)Nc1c[nH]c2ccc(CCOc3ccc(C(F)(F)F)cc3)cc12 (stereo not shown) [Compound 397, 2,2-dimethyl-N-(5-(2-(4-(trifluoromethyl)phenoxy)ethyl)-1H-indol-3-yl)cyclopropane-1-carboxamide] | 6.00 to 6.70
31 | N#CC1(C(=O)Nc2c[nH]c3ccc(CCOc4ccc(C(F)(F)F)cc4)cc23)CC1 [Compound 398, 1-cyano-N-(5-(2-(4-(trifluoromethyl)phenoxy)ethyl)-1H-indol-3-yl)cyclopropane-1-carboxamide] | 6.00 to 6.70
32 | CC1(C(=O)Nc2c[nH]c3ccc(CCOc4ccc(C(F)(F)F)cc4)cc23)CC1 [Compound 399, 1-methyl-N-(5-(2-(4-(trifluoromethyl)phenoxy)ethyl)-1H-indol-3-yl)cyclopropane-1-carboxamide] | 6.00 to 6.70
33 | O=C(Nc1c[nH]c2ccc(CCOc3ccc(C(F)(F)F)cc3)cc12)C1(F)CC1 [Compound 400, 1-fluoro-N-(5-(2-(4-(trifluoromethyl)phenoxy)ethyl)-1H-indol-3-yl)cyclopropane-1-carboxamide] | 6.00 to 6.70
34 | O=C(Nc1c[nH]c2ccc(CCOc3ccc(C(F)(F)F)cc3)cc12)C1CCOCC1 [Compound 401, N-(5-(2-(4-(trifluoromethyl)phenoxy)ethyl)-1H-indol-3-yl)tetrahydro-2H-pyran-4-carboxamide] | 6.00 to 6.70
